Measured values as given in patent US9593122B2, “Substituted pyrazolylpyrazole derivative and use of same as herbicide” (KYOYU AGRI CO., LTD., priority 2013, dated 2017).

How the values were obtained:
Scirpus juncoides = test: Paddy herbicidal activity test; assay type: in vivo; details: irrigated paddy pot, 30 days
How it was run: (§1)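 Flooded paddy-soil pots (3 cm water) were sown with Echinochloa, Monochoria and Scirpus, and rice at the 2.0-leaf stage was transplanted. Diluted wettable powder was dripped in per are at weed 3.5-leaf stage. After 30 days in a greenhouse (~30 °C), growth inhibition versus untreated plants was scored on an 11-level scale.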

Echinochloa crus-galli = test: Paddy herbicidal activity test; assay type: in vivo; details: irrigated paddy pot, treated at 3.5 leaf stage of Echinochloa crus-galli, 30 days
How it was run: as §1

Monochoria vaginalis = test: Paddy herbicidal activity test; assay type: in vivo; details: irrigated paddy pot, 30 days
How it was run: as §1

Rice plants = test: Paddy herbicidal activity test, phytotoxicity to transplanted rice; assay type: in vivo; details: rice transplanted at 2.0 leaf stage, 30 days
Protocol: Rice paddy soil was filled into a 1/10000 are pot followed by the addition of suitable amounts of water and chemical fertilizer, kneading, seeding with Echinochloa crus-galli, Monochoria vaginalis and Scirpus juncoides and maintaining in an irrigated state at a water depth of 3 cm.
Wettable powder of Target Compound (I) shown in Table 1 prepared in compliance with the preparation examples were diluted with a suitable amount of water, rice plants in the 2.0 leaf stage were transplanted during 3.5 leaf stage of Echinochloa crus-galli, and treated by dropping in chemical in the prescribed amount per are using a pipette.
(§2) After treating for 30 days in a glass greenhouse at an average atmospheric temperature of 30° C., the herbicidal efficacy thereof was investigated.
Evaluation of herbicidal efficacy was carried out by comparing growth inhibition rate (%) with an untreated group, while evaluation of phytotoxicity was carried out by comparing growth inhibition rate (%) with the state of a complete eradication group, and were evaluated at 11 levels indicated below.

Digitaria ciliaris [1] = test: Weed foliar treatment test; assay type: in vivo; details: foliar spray at 1.0 to 2.0 leaf stage of Digitaria ciliaris, 3 weeks
Protocol: (§3) Soil was filled into a 1/6000 are pot followed by seeding with Digitaria ciliaris, Chenopodium album and Amaranthus retroflexus, covering with soil, and cultivating in a glass greenhouse at an average atmospheric temperature of 25° C.
(§4) Wettable powder of Target Compound (I) shown in Table 1 prepared in compliance with the preparation examples were diluted with water to the prescribed amount of chemical and uniformly sprayed onto the weeds using 15 liters of sprayed water per are when Digitaria ciliaris had grown to the 1.0 to 2.0 leaf stage.
(§5) After treating for 3 weeks in a glass greenhouse at an average atmospheric temperature of 25° C., the herbicidal efficacy thereof was investigated.
(§6) Evaluation of herbicidal efficacy was carried out in the same manner as the above-mentioned Test Example 1.

Amaranthus retroflexus [2] = test: Weed foliar treatment test; assay type: in vivo; details: foliar spray, 3 weeks
Protocol: as §3, §4, §5, §6

Chenopodium album [3] = test: Weed foliar treatment test; assay type: in vivo; details: foliar spray, 3 weeks
Protocol: as §3, §4, §5, §6

Digitaria ciliaris [4] = test: Farming soil treatment test; assay type: in vivo; details: soil surface spray prior to weed growth, 30 days
Protocol: (§7) Field soil was filled into a 1/6000 are pot followed by seeding with Digitaria ciliaris, Chenopodium album and Amaranthus retroflexus and covering with soil.
(§8) Wettable powder of compounds of formula (I) shown in Table 1 prepared in compliance with the preparation examples were diluted with water to the prescribed amount of chemical and uniformly sprayed onto each soil surface layer using 10 liters of sprayed water per are prior to weed growth following seeding.
as §2
(§9) Evaluation of herbicidal efficacy is carried out in the same manner as the above-mentioned Test Example 1.

Amaranthus retroflexus [5] = test: Farming soil treatment test; assay type: in vivo; details: soil surface spray prior to weed growth, 30 days
Protocol: as §7, §8, §2, §9

Chenopodium album [6] = test: Farming soil treatment test; assay type: in vivo; details: soil surface spray prior to weed growth, 30 days
Protocol: as §7, §8, §2, §9

SMILES | Scirpus juncoides herbicidal efficacy (growth inhibition level) (Scirpus juncoides; 1g a.i./10a) | Scirpus juncoides herbicidal efficacy (growth inhibition level) (Scirpus juncoides; 5g a.i./10a) | Echinochloa crus-galli herbicidal efficacy (growth inhibition level) (Echinochloa crus-galli; 1g a.i./10a) | Echinochloa crus-galli herbicidal efficacy (growth inhibition level) (Echinochloa crus-galli; 5g a.i./10a) | Monochoria vaginalis herbicidal efficacy (growth inhibition level) (Monochoria vaginalis; 1g a.i./10a) | Monochoria vaginalis herbicidal efficacy (growth inhibition level) (Monochoria vaginalis; 5g a.i./10a) | Rice plants phytotoxicity (growth inhibition level) (Rice plants; 1g a.i./10a) | Rice plants phytotoxicity (growth inhibition level) (Rice plants; 5g a.i./10a) | melting point [°C] | Digitaria ciliaris herbicidal efficacy (growth inhibition level) (Digitaria ciliaris [1]; 5g a.i./10a) | Digitaria ciliaris herbicidal efficacy (growth inhibition level) (Digitaria ciliaris [1]; 10g a.i./10a) | Amaranthus retroflexus herbicidal efficacy (growth inhibition level) (Amaranthus retroflexus [2]; 5g a.i./10a) | Amaranthus retroflexus herbicidal efficacy (growth inhibition level) (Amaranthus retroflexus [2]; 10g a.i./10a) | Chenopodium album herbicidal efficacy (growth inhibition level) (Chenopodium album [3]; 5g a.i./10a) | Chenopodium album herbicidal efficacy (growth inhibition level) (Chenopodium album [3]; 10g a.i./10a) | Digitaria ciliaris herbicidal efficacy (growth inhibition level) (Digitaria ciliaris [4]; 5g a.i./10a) | Digitaria ciliaris herbicidal efficacy (growth inhibition level) (Digitaria ciliaris [4]; 10g a.i./10a) | Amaranthus retroflexus herbicidal efficacy (growth inhibition level) (Amaranthus retroflexus [5]; 5g a.i./10a) | Amaranthus retroflexus herbicidal efficacy (growth inhibition level) (Amaranthus retroflexus [5]; 10g a.i./10a) | Chenopodium album herbicidal efficacy (growth inhibition level) (Chenopodium album [6]; 5g a.i./10a) | further results
C=C(C)CNc1c(C#N)cnn1-c1nn2c(c1Cl)CCCC2 [Compound 1, 1-(3-chloro-4,5,6,7-tetrahydropyrazolo[1,5-a]pyridin-2-yl)-5-(2-methylprop-2-enylamino)pyrazole-4-carbonitrile] | 7 (7: 70% to less than 80%) | 8 (8: 80% to less than 90%) | 8 (8: 80% to less than 90%) | 9 (9: 90% to less than 100%) | 9 (9: 90% to less than 100%) | 9 (9: 90% to less than 100%) | 0 (0 (exponent): 0% to less than 10% (growth inhibition rate)) | 0 (0 (exponent): 0% to less than 10% (growth inhibition rate)) | 97 to 98 |  |  |  |  |  |  |  |  |  |  |  | 
C=C(Cl)CNc1c(C#N)cnn1-c1nn2c(c1Cl)CCCC2 [Compound 2, 1-(3-chloro-4,5,6,7-tetrahydropyrazolo[1,5-a]pyridin-2-yl)-5-(2-chloroprop-2-enylamino)pyrazole-4-carbonitrile] | 7 (7: 70% to less than 80%) | 8 (8: 80% to less than 90%) | 9 (9: 90% to less than 100%) | 9 (9: 90% to less than 100%) | 9 (9: 90% to less than 100%) | 9 (9: 90% to less than 100%) | 0 (0 (exponent): 0% to less than 10% (growth inhibition rate)) | 0 (0 (exponent): 0% to less than 10% (growth inhibition rate)) | 123 to 124 |  |  |  |  |  |  |  |  |  |  |  | 
C#CCNc1c(C#N)cnn1-c1nn2c(c1Cl)CCCC2 [Control agent 4.85, 4.156, reference compound] | 0 (0 (exponent): 0% to less than 10% (growth inhibition rate)) | 1 (1: 10% to less than 20%) | 2 (2: 20% to less than 30%) | 3 (3: 30% to less than 40%) | 1 (1: 10% to less than 20%) | 3 (3: 30% to less than 40%) | 2 (2: 20% to less than 30%) | 2 (2: 20% to less than 30%) |  | 3 (3: 30% to less than 40%) | 5 (5: 50% to less than 60%) | 4 (4: 40% to less than 50%) | 6 (6: 60% to less than 70%) | 5 (5: 50% to less than 60%) | 6 (6: 60% to less than 70%) | 3 (3: 30% to less than 40%) | 4 (4: 40% to less than 50%) | 3 (3: 30% to less than 40%) | 6 (6: 60% to less than 70%) | 4 (4: 40% to less than 50%) | Chenopodium album herbicidal efficacy (growth inhibition level) (Chenopodium album [6]; 10g a.i./10a): 5 (5: 50% to less than 60%)
C#CCN(C(=O)C(F)(F)F)c1c(C#N)cnn1-c1nn2c(c1Cl)CCCC2 [Control agent 4.239, reference compound] | 0 (0 (exponent): 0% to less than 10% (growth inhibition rate)) | 1 (1: 10% to less than 20%) | 3 (3: 30% to less than 40%) | 5 (5: 50% to less than 60%) | 1 (1: 10% to less than 20%) | 2 (2: 20% to less than 30%) | 0 (0 (exponent): 0% to less than 10% (growth inhibition rate)) | 1 (1: 10% to less than 20%) |  | 3 (3: 30% to less than 40%) | 5 (5: 50% to less than 60%) | 4 (4: 40% to less than 50%) | 6 (6: 60% to less than 70%) | 3 (3: 30% to less than 40%) | 4 (4: 40% to less than 50%) | 4 (4: 40% to less than 50%) | 5 (5: 50% to less than 60%) | 3 (3: 30% to less than 40%) | 5 (5: 50% to less than 60%) | 2 (2: 20% to less than 30%) | Chenopodium album herbicidal efficacy (growth inhibition level) (Chenopodium album [6]; 10g a.i./10a): 3 (3: 30% to less than 40%)
